According to patent US12435066B2, “Substituted tricyclic compounds” (LUPIN LIMITED, priority 2019, dated 2025):

How the values were obtained:
[1] = tested on: DLD-1 cell line; experiment: Colony formation assay (single agent activity); format: cell-based; details: Homo sapiens, 168 h, 7 days of drug treatment, crystal violet
Experimental: Example-129: Colony Formation Assay Protocol (Single Agent Activity)
DLD-1/MIA PaCa-2 cells were seeded at a density of 300/500 cells per well respectively in 48 well tissue culture plate and cells were allowed to settle overnight (16 to 20 h). On the following day, cells were treated with different concentrations of test or reference compound and the assay plates were incubated under standard cell culture conditions (37° C. with 5% CO2). After 7 days of drug treatment, media was removed from each well and plates were washed with PBS. Colonies were stained with crystal violet solution for 2-5 min. Plate was then washed carefully under tap water and air dried. For quantitation, 200 μL destaining solution containing 10% Glacial acetic acid was added to each well and crystal violet from the colonies was allowed to solubilize for 20-30 min on plate shaker. After solubilization, absorbance of the extracted stain was recorded in BioTek Synergy Neo II plate reader at 590 nm. Absorbance values were directly proportional to colony growth.

[2] = target: T1, hSOS1 and hKRASG12C (Homo sapiens, UniProt Q07889); experiment: biochemical
T1 sequence (Q07889 564-1049): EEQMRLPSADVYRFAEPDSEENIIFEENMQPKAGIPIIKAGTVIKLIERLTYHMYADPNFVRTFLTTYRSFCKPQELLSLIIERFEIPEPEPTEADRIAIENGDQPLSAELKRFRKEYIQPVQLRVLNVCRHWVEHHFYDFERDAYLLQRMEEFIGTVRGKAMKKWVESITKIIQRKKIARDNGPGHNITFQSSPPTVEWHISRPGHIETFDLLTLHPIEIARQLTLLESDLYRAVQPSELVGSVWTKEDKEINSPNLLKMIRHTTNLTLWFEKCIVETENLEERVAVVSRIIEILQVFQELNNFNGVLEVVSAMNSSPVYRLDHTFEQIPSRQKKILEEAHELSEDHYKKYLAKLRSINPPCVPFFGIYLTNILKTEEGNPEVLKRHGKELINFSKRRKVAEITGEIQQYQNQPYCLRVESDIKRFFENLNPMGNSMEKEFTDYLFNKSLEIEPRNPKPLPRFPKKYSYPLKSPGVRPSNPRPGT
Experimental: Interaction assay was conducted to evaluate the ability of the compounds to disrupt the protein-protein interactions between hSOS1 and hKRASG12C. Inhibitory effect of compounds on GST-hSOS1, 564-1049aa expressed and purified in-house and HIS-hKRASG12C (R06-32DH, SignalChem) interaction was assessed using HTRF detection technology in biochemical assay. Compounds were pre-incubated with 10-50 nM working solution of hSOS1 per well of a 384 well plate (Perkin Elmer, Cat #6007290) for 10 min at 20° C. in the assay buffer containing 5 mM HEPES, pH 7.4, 150 mM NaCl, 10 mM EDTA, 1 mM DTT, 0.05% BSA fraction V and 0.0025% Igepal. Reaction was initiated by adding 100-300 nM working solution of hKRASG12C in assay buffer. Total assay volume was 15 μL. Reaction was continued for 30-60 min at 20° C. Then detection solution containing MAb Anti-GST-d2 (#61GSTDLA, Cisbio BioAssays) and MAb Anti-HIS-Tb (#61HISTLA, Cisbio BioAssays), all prepared in HTRF detection buffer (#61DB10RDF, Cisbio BioAssays) was added and further incubated for 30-60 min at 20° C. HTRF signal was recorded in PHERAStar microplate reader. Ratio of signal obtained at 665 nm and 620 nm was used to compute the percent inhibition of compound utilizing the following formula:
Positive control=hSOS1+hKRASG12C+MAb Anti-GST-d2+Mab Anti-HIS-Tb Negative control=hKRASG12C+MAb Anti-GST-d2+MAb Anti-HIS-Tb

[3] = target: T2, hSOS1 mediated nucleotide exchange on hKRASG12C (Homo sapiens, UniProt Q07889); experiment: biochemical
T2 sequence (Q07889 564-1049): T1 sequence (Q07889 564-1049)

[4] = tested on: pERK in DLD1 cells; experiment: ERK phosphorylation assay after EGF stimulation; format: cell-based; details: Homo sapiens, DLD-1, compound 2 h, 200 ng/ml hEGF 5 minutes, alphascreen pERK, read-out: ERK phosphorylation inhibition IC50
In short: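 DLD1 cells pretreated 2 h with compound, then stimulated 5 minutes with 200 ng/ml hEGF. Lysates assayed for ERK1/2 p-T202/Y204 by AlphaScreen SureFire, read after 2 h at 25-28° C.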

| Structure (SMILES) | IC50 [1] [µM] | IC50 [2] [nM] | IC50 [3] [nM] | IC50 [4] [nM] |
| --- | --- | --- | --- | --- |
| Cc1nc(N[C@H](C)c2cccc(C(F)(F)[C@](C)(O)CO)c2F)c2cc(N3CCOCC3)c3c(c2n1)CCC3 (racemic) [Compound 82a, (R/S)-3,3-difluoro-3-(2-fluoro-3-((R/S)-1-((2-methyl-6-morpholino-8,9-dihydro-7H-cyclopenta[h]quinazolin-4-yl)amino)ethyl)phenyl)-2-methylpropane-1,2-diol] | 0.5 to 6 | 1 to 10 | 1 to 30 | 1 to 200 |
| Cc1nc(N[C@H](C)c2cc(N)cc(C(F)(F)F)c2)c2cc(N3CCN(C)C(=O)C3)c3c(c2n1)CCC3 [Compound 56, (R)-4-(4-((1-(3-amino-5-(trifluoromethyl)phenyl)ethyl)amino)-2-methyl-8,9-dihydro-7H-cyclopenta[h]quinazolin-6-yl)-1-methylpiperazin-2-one] | – | 1 to 10 | 1 to 30 | 1 to 200 |
| Cc1nc(N[C@H](C)c2cc(N)cc(C(F)(F)F)c2)c2cc(N3CCC(C(C)(C)O)CC3)c3c(c2n1)CCC3 [Compound 51, (R)-2-(1-(4-((1-(3-amino-5-(trifluoromethyl)phenyl)ethyl)amino)-2-methyl-8,9-dihydro-7H-cyclopenta[h]quinazolin-6-yl)piperidin-4-yl)propan-2-ol] | – | 1 to 10 | 1 to 30 | 1 to 200 |
| Cc1nc(N[C@H](C)c2cccc(C(F)(F)C(C)(C)O)c2F)c2cc(N3C[C@@H]4[C@@H](CO)[C@@H]4C3)c3c(c2n1)CCC3 [Compound 58, 1,1-difluoro-1-(2-fluoro-3-((R)-1-((6-((1R,5S,6R)-6-(hydroxymethyl)-3-azabicyclo[3.1.0]hexan-3-yl)-2-methyl-8,9-dihydro-7H-cyclopenta[h]quinazolin-4-yl)amino)ethyl)phenyl)-2-methylpropan-2-ol] | – | 1 to 10 | 1 to 30 | 1 to 200 |
| Cc1nc(N[C@H](C)c2cccc(C(F)(F)C(C)(C)O)c2F)c2cc(N3CCC(CO)CC3)c3c(c2n1)CCC3 [Compound 64, (R)-1,1-difluoro-1-(2-fluoro-3-(1-((6-(4-(hydroxymethyl)piperidin-1-yl)-2-methyl-8,9-dihydro-7H-cyclopenta[h]quinazolin-4-yl)amino)ethyl)phenyl)-2-methylpropan-2-ol] | – | 1 to 10 | 1 to 30 | 1 to 200 |
| Cc1nc(N[C@H](C)c2cccc(C(F)(F)C(C)(C)O)c2F)c2cc(N3CCC(C)(CO)CC3)c3c(c2n1)CCC3 [Compound 60, (R)-1,1-difluoro-1-(2-fluoro-3-(1-((6-(4-(hydroxymethyl)-4-methylpiperidin-1-yl)-2-methyl-8,9-dihydro-7H-cyclopenta[h]quinazolin-4-yl)amino)ethyl)phenyl)-2-methylpropan-2-ol] | – | 1 to 10 | 1 to 30 | 1 to 200 |
| COCC1CCN(c2cc3c(N[C@H](C)c4cccc(C(F)(F)C(C)(C)O)c4F)nc(C)nc3c3c2CCC3)CC1 [Compound 57, (R)-1,1-difluoro-1-(2-fluoro-3-(1-((6-(4-(methoxymethyl)piperidin-1-yl)-2-methyl-8,9-dihydro-7H-cyclopenta[h]quinazolin-4-yl)amino)ethyl)phenyl)-2-methylpropan-2-ol] | – | 1 to 10 | 1 to 30 | 1 to 200 |
| COCC1(O)CCN(c2cc3c(N[C@H](C)c4cccc(C(F)(F)CCO)c4F)nc(C)nc3c3c2CCC3)CC1 [Compound 71, (R)-1-(4-((1-(3-(1,1-difluoro-3-hydroxypropyl)-2-fluorophenyl)ethyl)amino)-2-methyl-8,9-dihydro-7H-cyclopenta[h]quinazolin-6-yl)-4-(methoxymethyl) piperidin-4-ol] | – | 1 to 10 | 1 to 30 | 1 to 200 |
| COCC1(O)CCN(c2cc3c(N[C@H](C)c4cccc(C(F)(F)C(C)(C)O)c4F)nc(C)nc3c3c2CCC3)CC1 [Compound 63, (R)-1-(4-((1-(3-(1,1-difluoro-2-hydroxy-2-methylpropyl)-2-fluorophenyl)ethyl)amino)-2-methyl-8,9-dihydro-7H-cyclopenta[h]quinazolin-6-yl)-4-(methoxymethyl)piperidin-4-ol] | – | 1 to 10 | 1 to 30 | 1 to 200 |
| Cc1nc(N[C@H](C)c2cccc(C(F)(F)C(C)(C)O)c2F)c2cc(N3CC4(COC4)C3)c3c(c2n1)CCC3 [Compound 10, (R)-1,1-difluoro-1-(2-fluoro-3-(1-((2-methyl-6-(2-oxa-6-azaspiro[3.3]heptan-6-yl)-8,9-dihydro-7H-cyclopenta[h]quinazolin-4-yl)amino)ethyl)phenyl)-2-methylpropan-2-ol] | – | 1 to 10 | 1 to 30 | 1 to 200 |
| COCC1(O)CCN(c2cc3c(N[C@H](C)c4cc(N)cc(C(F)(F)F)c4)nc(C)nc3c3c2CCC3)CC1 [Compound 47, (R)-1-(4-((1-(3-amino-5-(trifluoromethyl)phenyl)ethyl)amino)-2-methyl-8,9-dihydro-7H-cyclopenta[h]quinazolin-6-yl)-4-(methoxymethyl)piperidin-4-ol] | – | 1 to 10 | 1 to 30 | 1 to 200 |
| Cc1nc(N[C@H](C)c2cccc(C(F)(F)[C@@H](C)O)c2F)c2cc(N3CC4(COC4)C3)c3c(c2n1)CCC3 (single isomer, unassigned) [Compound 73b] | – | 1 to 10 | 1 to 30 | 1 to 200 |
| Cc1nc(N[C@H](C)c2cccc(C(F)(F)C(C)O)c2F)c2cc(N3CC4(COC4)C3)c3c(c2n1)CCC3 (single isomer, unassigned) [Compound 73a] | – | 1 to 10 | 1 to 30 | 1 to 200 |
| COCC(F)(F)c1cccc([C@@H](C)Nc2nc(C)nc3c4c(c(N5CC6(COC6)C5)cc23)CCC4)c1F [Compound 24, (R)—N-(1-(3-(1,1-difluoro-2-methoxyethyl)-2-fluorophenyl)ethyl)-2-methyl-6-(2-oxa-6-azaspiro[3.3]heptan-6-yl)-8,9-dihydro-7H-cyclopenta[h]quinazolin-4-amine] | – | 1 to 10 | 31 to 70 | 1 to 200 |
| Cc1nc(N[C@H](C)c2cc(N)cc(C(F)(F)F)c2)c2cc(N3CCNC(=O)C3)c3c(c2n1)CCC3 [Compound 53, (R)-4-(4-((1-(3-amino-5-(trifluoromethyl)phenyl)ethyl)amino)-2-methyl-8,9-dihydro-7H-cyclopenta[h]quinazolin-6-yl)piperazin-2-one] | – | 1 to 10 | 1 to 30 | 1 to 200 |
| Cc1nc(N[C@H](C)c2cc(N)cc(C(F)(F)F)c2)c2cc(N3CCOCC3)c3c(c2n1)CCC3 [Compound 2, (R)—N-(1-(3-amino-5-(trifluoromethyl)phenyl)ethyl)-2-methyl-6-morpholino-8,9-dihydro-7H-cyclopenta[h]quinazolin-4-amine] | – | 1 to 10 | 1 to 30 | 1 to 200 |
| Cc1nc(N[C@H](C)c2cccc(C(F)(F)CO)c2F)c2cc(N3CC[C@H](O)C3)c3c(c2n1)CCC3 [Compound 22, (S)-1-(4-(((R)-1-(3-(1,1-difluoro-2-hydroxyethyl)-2-fluorophenyl)ethyl)amino)-2-methyl-8,9-dihydro-7H-cyclopenta[h]quinazolin-6-yl)pyrrolidin-3-ol] | – | 1 to 10 | 1 to 30 | 1 to 200 |
| Cc1nc(N[C@H](C)c2cc(N)cc(C(F)(F)F)c2)c2cc(N3CCOCC3)c3c(c2n1)CC(C)(C)O3 [Compound 113, (R)—N-(1-(3-amino-5-(trifluoromethyl)phenyl)ethyl)-2,8,8-trimethyl-6-morpholino-8,9-dihydrofuro[2,3-h]quinazolin-4-amine] | – | 1 to 10 | 1 to 30 | 1 to 200 |
| Cc1nc(NC(C)c2cc(N)cc(C(F)F)c2)c2cc(N3CC4(COC4)C3)c3c(c2n1)CCC3 (racemic) [Compound 78, (R/S)—N-(1-(3-amino-5-(difluoromethyl)phenyl)ethyl)-2-methyl-6-(2-oxa-6-azaspiro[3.3]heptan-6-yl)-8,9-dihydro-7H-cyclopenta[h]quinazolin-4-amine] | – | 1 to 10 | 1 to 30 | 1 to 200 |
| Cc1nc(N[C@H](C)c2cccc(C(F)(F)CO)c2F)c2cc(N3CC4(COC4)C3)c3c(c2n1)CCC3 [Compound 23, (R)-2,2-difluoro-2-(2-fluoro-3-(1-((2-methyl-6-(2-oxa-6-azaspiro[3.3]heptan-6-yl)-8,9-dihydro-7H-cyclopenta[h]quinazolin-4-yl)amino)ethyl)phenyl)ethan-1-ol] | – | 1 to 10 | 1 to 30 | 1 to 200 |
